{
  "source": "the supplement of paper PMC10307832",
  "experiment_in_all_cases": "relative viability (nuclei count vs DMSO), 5 days (fraction); higher = more cells survive",
  "key": {"[1]": {"tested_on": "LC-2-ad", "procedure,_shortened": "(§1)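 Relative viability is defined as nuclei in treated wells over nuclei in vehicle wells. Duplicate plates were run and medians reported. Lung cancer cell lines in 1536-well plates were dosed by pin tool one day after seeding, with one drug or with a fixed anchor-drug dose plus five library-drug doses (not always all listed) in √10 steps, and nuclei were counted after 5 days.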"}, "[2]": {"tested_on": "NCI-H2228", "procedure,_shortened": "as §1"}, "[3]": {"tested_on": "NCI-H1734", "procedure,_shortened": "as §1"}, "[4]": {"tested_on": "A-427", "procedure,_shortened": "as §1"}, "[5]": {"tested_on": "RERF-LC-KJ", "procedure,_shortened": "as §1"}, "[6]": {"tested_on": "HOP-62", "procedure,_shortened": "as §1"}, "[7]": {"tested_on": "NCI-H1755", "procedure,_shortened": "as §1"}, "[8]": {"tested_on": "NCI-H1915", "procedure,_shortened": "as §1"}, "[9]": {"tested_on": "NCI-H2347", "procedure,_shortened": "as §1"}, "[10]": {"tested_on": "HCC-15", "procedure,_shortened": "as §1"}, "[11]": {"tested_on": "SW 1573", "procedure,_shortened": "as §1"}, "[12]": {"tested_on": "SK-LU-1", "procedure,_shortened": "as §1"}, "[13]": {"tested_on": "NCI-H2126", "procedure,_shortened": "as §1"}, "[14]": {"tested_on": "NCI-H647", "procedure,_shortened": "as §1"}, "[15]": {"tested_on": "PC-3 [JPC-3]", "procedure,_shortened": "as §1"}, "[16]": {"tested_on": "HCC-78", "procedure,_shortened": "as §1"}, "[17]": {"tested_on": "NCI-H1975", "procedure,_shortened": "as §1"}, "[18]": {"tested_on": "NCI-H358", "procedure,_shortened": "as §1"}, "[19]": {"tested_on": "NCI-H1792", "procedure,_shortened": "as §1"}, "[20]": {"tested_on": "LXF-289", "procedure,_shortened": "as §1"}},
  "data": [
    {"smiles": "O=c1cc(N2CCOCC2)oc2c(-c3cccc4c3sc3ccccc34)cccc12", "note": "+ C[C@@H](Oc1cc(-c2cnn(C3CCNCC3)c2)cnc1N)c1c(Cl)ccc(F)c1Cl [Crizotinib] (partner 1 µM)", "values": [
      {"measurement": "relative viability", "setting": "[1]; first compound 0.01 µM", "value": 0.492},
      {"measurement": "relative viability", "setting": "[1]; first compound 0.03162 µM", "value": 0.427},
      {"measurement": "relative viability", "setting": "[1]; first compound 0.1 µM", "value": 0.487},
      {"measurement": "relative viability", "setting": "[1]; first compound 0.3162 µM", "value": 0.397},
      {"measurement": "relative viability", "setting": "[1]; first compound 1 µM", "value": 0.537},
      {"measurement": "relative viability", "setting": "[2]; first compound 0.03162 µM", "value": 0.479},
      {"measurement": "relative viability", "setting": "[2]; first compound 0.1 µM", "value": 0.501},
      {"measurement": "relative viability", "setting": "[2]; first compound 0.3162 µM", "value": 0.403},
      {"measurement": "relative viability", "setting": "[2]; first compound 1 µM", "value": 0.471},
      {"measurement": "relative viability", "setting": "[3]; first compound 0.01 µM", "value": 0.766},
      {"measurement": "relative viability", "setting": "[3]; first compound 0.03162 µM", "value": 0.678},
      {"measurement": "relative viability", "setting": "[3]; first compound 0.1 µM", "value": 0.699},
      {"measurement": "relative viability", "setting": "[3]; first compound 0.3162 µM", "value": 0.61},
      {"measurement": "relative viability", "setting": "[3]; first compound 1 µM", "value": 0.642},
      {"measurement": "relative viability", "setting": "[4]; first compound 0.01 µM", "value": 0.983},
      {"measurement": "relative viability", "setting": "[4]; first compound 0.03162 µM", "value": 0.851},
      {"measurement": "relative viability", "setting": "[4]; first compound 0.1 µM", "value": 0.807},
      {"measurement": "relative viability", "setting": "[4]; first compound 0.3162 µM", "value": 0.787},
      {"measurement": "relative viability", "setting": "[4]; first compound 1 µM", "value": 0.925},
      {"measurement": "relative viability", "setting": "[5]; first compound 0.01 µM", "value": 0.838},
      {"measurement": "relative viability", "setting": "[5]; first compound 0.03162 µM", "value": 0.798},
      {"measurement": "relative viability", "setting": "[5]; first compound 0.1 µM", "value": 0.871},
      {"measurement": "relative viability", "setting": "[5]; first compound 0.3162 µM", "value": 0.823},
      {"measurement": "relative viability", "setting": "[5]; first compound 1 µM", "value": 0.808},
      {"measurement": "relative viability", "setting": "[6]; first compound 0.01 µM", "value": 1.06},
      {"measurement": "relative viability", "setting": "[6]; first compound 0.03162 µM", "value": 0.931},
      {"measurement": "relative viability", "setting": "[6]; first compound 0.1 µM", "value": 0.931},
      {"measurement": "relative viability", "setting": "[6]; first compound 0.3162 µM", "value": 0.945},
      {"measurement": "relative viability", "setting": "[6]; first compound 1 µM", "value": 1.04},
      {"measurement": "relative viability", "setting": "[7]; first compound 0.01 µM", "value": 0.875},
      {"measurement": "relative viability", "setting": "[7]; first compound 0.03162 µM", "value": 0.812},
      {"measurement": "relative viability", "setting": "[7]; first compound 0.1 µM", "value": 0.838},
      {"measurement": "relative viability", "setting": "[7]; first compound 0.3162 µM", "value": 0.807},
      {"measurement": "relative viability", "setting": "[7]; first compound 1 µM", "value": 0.767},
      {"measurement": "relative viability", "setting": "[8]; first compound 0.01 µM", "value": 0.875},
      {"measurement": "relative viability", "setting": "[8]; first compound 0.03162 µM", "value": 0.879},
      {"measurement": "relative viability", "setting": "[8]; first compound 0.1 µM", "value": 0.939},
      {"measurement": "relative viability", "setting": "[8]; first compound 0.3162 µM", "value": 0.876},
      {"measurement": "relative viability", "setting": "[8]; first compound 1 µM", "value": 0.933},
      {"measurement": "relative viability", "setting": "[9]; first compound 0.01 µM", "value": 0.805},
      {"measurement": "relative viability", "setting": "[9]; first compound 0.03162 µM", "value": 0.661},
      {"measurement": "relative viability", "setting": "[9]; first compound 0.1 µM", "value": 0.739},
      {"measurement": "relative viability", "setting": "[9]; first compound 0.3162 µM", "value": 0.584},
      {"measurement": "relative viability", "setting": "[9]; first compound 1 µM", "value": 0.76},
      {"measurement": "relative viability", "setting": "[10]; first compound 0.01 µM", "value": 0.807},
      {"measurement": "relative viability", "setting": "[10]; first compound 0.03162 µM", "value": 0.846},
      {"measurement": "relative viability", "setting": "[10]; first compound 0.1 µM", "value": 0.879},
      {"measurement": "relative viability", "setting": "[10]; first compound 0.3162 µM", "value": 0.773},
      {"measurement": "relative viability", "setting": "[10]; first compound 1 µM", "value": 0.764},
      {"measurement": "relative viability", "setting": "[11]; first compound 0.01 µM", "value": 0.787},
      {"measurement": "relative viability", "setting": "[11]; first compound 0.03162 µM", "value": 0.805},
      {"measurement": "relative viability", "setting": "[11]; first compound 0.1 µM", "value": 0.808},
      {"measurement": "relative viability", "setting": "[11]; first compound 0.3162 µM", "value": 0.74},
      {"measurement": "relative viability", "setting": "[11]; first compound 1 µM", "value": 0.752},
      {"measurement": "relative viability", "setting": "[12]; first compound 0.03162 µM", "value": 0.897},
      {"measurement": "relative viability", "setting": "[12]; first compound 0.1 µM", "value": 0.828},
      {"measurement": "relative viability", "setting": "[12]; first compound 0.3162 µM", "value": 0.993},
      {"measurement": "relative viability", "setting": "[12]; first compound 1 µM", "value": 0.877},
      {"measurement": "relative viability", "setting": "[13]; first compound 0.01 µM", "value": 1.04},
      {"measurement": "relative viability", "setting": "[13]; first compound 0.03162 µM", "value": 1.01},
      {"measurement": "relative viability", "setting": "[13]; first compound 0.1 µM", "value": 1.01},
      {"measurement": "relative viability", "setting": "[13]; first compound 0.3162 µM", "value": 0.944},
      {"measurement": "relative viability", "setting": "[13]; first compound 1 µM", "value": 0.955},
      {"measurement": "relative viability", "setting": "[14]; first compound 0.01 µM", "value": 1.12},
      {"measurement": "relative viability", "setting": "[14]; first compound 0.03162 µM", "value": 1.23},
      {"measurement": "relative viability", "setting": "[14]; first compound 0.1 µM", "value": 1.08},
      {"measurement": "relative viability", "setting": "[14]; first compound 0.3162 µM", "value": 0.949},
      {"measurement": "relative viability", "setting": "[14]; first compound 1 µM", "value": 0.939},
      {"measurement": "relative viability", "setting": "[15]; first compound 0.01 µM", "value": 0.931},
      {"measurement": "relative viability", "setting": "[15]; first compound 0.03162 µM", "value": 0.903},
      {"measurement": "relative viability", "setting": "[15]; first compound 0.1 µM", "value": 0.938},
      {"measurement": "relative viability", "setting": "[15]; first compound 0.3162 µM", "value": 0.941},
      {"measurement": "relative viability", "setting": "[15]; first compound 1 µM", "value": 1.01},
      {"measurement": "relative viability", "setting": "[16]; first compound 0.01 µM", "value": 0.342},
      {"measurement": "relative viability", "setting": "[16]; first compound 0.03162 µM", "value": 0.33},
      {"measurement": "relative viability", "setting": "[16]; first compound 0.1 µM", "value": 0.331},
      {"measurement": "relative viability", "setting": "[16]; first compound 0.3162 µM", "value": 0.326},
      {"measurement": "relative viability", "setting": "[16]; first compound 1 µM", "value": 0.353},
      {"measurement": "relative viability", "setting": "[17]; first compound 0.01 µM", "value": 0.862},
      {"measurement": "relative viability", "setting": "[17]; first compound 0.03162 µM", "value": 0.998},
      {"measurement": "relative viability", "setting": "[17]; first compound 0.1 µM", "value": 1.02},
      {"measurement": "relative viability", "setting": "[17]; first compound 0.3162 µM", "value": 0.808},
      {"measurement": "relative viability", "setting": "[17]; first compound 1 µM", "value": 0.984},
      {"measurement": "relative viability", "setting": "[18]; first compound 0.01 µM", "value": 0.498},
      {"measurement": "relative viability", "setting": "[18]; first compound 0.03162 µM", "value": 0.546},
      {"measurement": "relative viability", "setting": "[18]; first compound 0.1 µM", "value": 0.794},
      {"measurement": "relative viability", "setting": "[18]; first compound 0.3162 µM", "value": 0.658},
      {"measurement": "relative viability", "setting": "[18]; first compound 1 µM", "value": 0.535},
      {"measurement": "relative viability", "setting": "[19]; first compound 0.01 µM", "value": 0.967},
      {"measurement": "relative viability", "setting": "[19]; first compound 0.03162 µM", "value": 0.923},
      {"measurement": "relative viability", "setting": "[19]; first compound 0.1 µM", "value": 0.741},
      {"measurement": "relative viability", "setting": "[19]; first compound 0.3162 µM", "value": 0.939},
      {"measurement": "relative viability", "setting": "[19]; first compound 1 µM", "value": 0.95},
      {"measurement": "relative viability", "setting": "[20]; first compound 0.01 µM", "value": 0.814},
      {"measurement": "relative viability", "setting": "[20]; first compound 0.03162 µM", "value": 0.806},
      {"measurement": "relative viability", "setting": "[20]; first compound 0.1 µM", "value": 0.794},
      {"measurement": "relative viability", "setting": "[20]; first compound 0.3162 µM", "value": 0.789},
      {"measurement": "relative viability", "setting": "[20]; first compound 1 µM", "value": 0.755}
    ]}
  ]
}
